Experimental data as given in patent US7189720B2 (H. Lundbeck A/S, priority 1999, dated 2007).
Like-named read-outs stand apart in the source and are kept apart here.

What was measured:
[1] = target: T1, human Y5 receptor (Homo sapiens, UniProt Q15761); assay: Functional assay: radioimmunoassay of cAMP in stably transfected cells; assay type: cell-based; conditions: Functional Antagonism Data, Table 7
T1 construct: expressed in transfected cells; host or cells: mouse fibroblast LM(tk-) cells, e.g. L-hY5-7 (ATCC CRL-11995)
T1 sequence (Q15761 1-445): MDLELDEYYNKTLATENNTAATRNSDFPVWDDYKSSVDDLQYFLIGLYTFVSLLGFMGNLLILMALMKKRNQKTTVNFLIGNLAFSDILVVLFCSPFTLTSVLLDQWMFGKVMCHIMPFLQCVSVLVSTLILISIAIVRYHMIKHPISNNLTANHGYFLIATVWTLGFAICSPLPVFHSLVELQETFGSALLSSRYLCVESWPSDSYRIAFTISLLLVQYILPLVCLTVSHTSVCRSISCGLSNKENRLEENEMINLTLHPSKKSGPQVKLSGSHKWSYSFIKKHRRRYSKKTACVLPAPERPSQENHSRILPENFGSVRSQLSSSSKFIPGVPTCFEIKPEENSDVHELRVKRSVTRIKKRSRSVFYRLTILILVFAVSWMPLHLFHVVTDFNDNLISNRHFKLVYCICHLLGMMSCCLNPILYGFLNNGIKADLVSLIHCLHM
Protocol: LM(tk-) cells stably transfected with the human Y5 receptor were routinely converted from an adherent monolayer to a viable suspension. Adherent cells were harvested with trypsin at the point of confluence, resuspended in a minimal volume of complete DMEM for a cell count, and further diluted to a concentration of 10^6 cells/ml in suspension media (10% bovine calf serum, 10% 10× Medium 199 (Gibco), 9 mM NaHCO3, 25 mM glucose, 2 mM L-glutamine, 100 units/ml penicillin/100 μg/ml streptomycin, and 0.05% methyl cellulose). The cell suspension was maintained in a shaking incubator at 37° C., 5% CO2 for 24 hours. Membranes harvested from cells grown in this manner may be stored as large, uniform batches in liquid nitrogen. Alternatively, cells may be returned to adherent cell culture in complete DMEM by distribution into 96-well microtiter plates coated with poly-D-lysine (0.01 mg/ml) followed by incubation at 37° C., 5% CO2 for 24 hours.
Stably transfected cells were seeded into 96-well microtiter plates and cultured until confluent. […] Cells were washed in […] buffered saline, or HBS (150 mM NaCl, 20 mM HEPES, 1 mM CaCl2, 5 mM KCl, 1 mM MgCl2, and 10 mM glucose) supplemented with 0.1% bovine serum albumin plus 5 mM theophylline and pre-equilibrated in the same solution for 20 min at 37° C. in 5% CO2. Cells were then incubated 5 min with 10 μM forskolin and various concentrations of receptor-selective ligands. The assay was terminated by the removal of HBS and acidification of the cells with 100 mM HCl. Intracellular cAMP was extracted and quantified with a modified version of a magnetic bead-based radioimmunoassay (Advanced Magnetics, Cambridge, Mass.). The final antigen/antibody complex was separated from free ^125I-cAMP by vacuum filtration through a PVDF filter in a microtiter plate (Millipore, Bedford, Mass.). Filters were punched and counted for ^125I, in a Packard gamma counter.

[2] = target: T2, human Y1 receptor (Homo sapiens, UniProt P25929); assay: Radioligand binding to membranes, cloned human Y1 receptor; conditions: text b745; read-out: Ki (nM) NPY (Y1)
T2 construct: expressed in transfected cells; host or cells: human embryonic kidney 293 cells, e.g. 293-hY1-5 (ATCC CRL-12121)
T2 sequence (P25929 1-384): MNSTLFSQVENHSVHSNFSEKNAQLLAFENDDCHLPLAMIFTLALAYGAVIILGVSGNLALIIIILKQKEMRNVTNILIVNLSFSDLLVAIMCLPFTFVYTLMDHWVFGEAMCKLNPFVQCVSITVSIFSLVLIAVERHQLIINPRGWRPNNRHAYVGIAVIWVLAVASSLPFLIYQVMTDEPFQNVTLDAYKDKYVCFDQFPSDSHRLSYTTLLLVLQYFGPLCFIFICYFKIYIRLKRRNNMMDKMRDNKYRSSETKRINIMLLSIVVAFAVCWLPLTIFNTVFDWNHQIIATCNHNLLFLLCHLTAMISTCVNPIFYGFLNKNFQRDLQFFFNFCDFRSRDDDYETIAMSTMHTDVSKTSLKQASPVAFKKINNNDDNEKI
Protocol: (§1) Binding of the compounds of the present invention to human Y1, Y2, Y4, and Y5 receptors was evaluated using stably transfected 293 or LM(tk-) cells as described above.
(§2) Membranes were harvested from COS-7 cells 48 hours after transient transfection. Adherent cells were washed twice in ice-cold phosphate buffered saline (138 mM NaCl, 8.1 mM Na2HPO4, 2.5 mM KCl, 1.2 mM KH2PO4, 0.9 mM CaCl2, 0.5 mM MgCl2, pH 7.4) and lysed by sonication in ice-cold sonication buffer (20 mM Tris-HCl, 5 mM EDTA, pH 7.7). Large particles and debris were cleared by low speed centrifugation (200×g, 5 min, 4° C.). Membranes were collected from the supernatant fraction by centrifugation (32,000×g, 18 min, 4° C.), washed with ice-cold hypotonic buffer, and collected again by centrifugation (32,000×g, 18 min, 4° C.). The final membrane pellet was resuspended by sonication into a small volume of ice-cold binding buffer (˜1 ml for every 5 plates: 10 mM NaCl, 20 mM HEPES, 0.22 mM KH2PO4, 1.26 mM CaCl2, 0.81 mM MgSO4, pH 7.4). Protein concentration was measured by the Bradford method (Bradford, 1976) using Bio-Rad Reagent, with bovine serum albumin as a standard. Membranes were held on ice for up to one hour and used fresh, or flash-frozen and stored in liquid nitrogen.
(§3) Membranes were prepared similarly from 293, LM(tk-), and NIH-3T3 cells.
(§4) Membrane suspensions were diluted in binding buffer supplemented with 0.1% bovine serum albumin to yield an optimal membrane protein concentration so that ^125I-PYY (or alternative radioligand such as ^125I-NPY, ^125I-NYY3-36, or ^125I-[Leu^31Pro^34]PYY) bound by membranes in the assay was less than 10% of ^125I-PYY (or alternative radioligand) delivered to the sample (100,000 dpm/sample=0.08 nM for competition binding assays). ^125I-PYY (or alternative radioligand) and peptide competitors were also diluted to desired concentrations in supplemented binding buffer. Individual samples were then prepared in 96-well polypropylene microtiter plates by mixing ^125I-PYY (25 μL) (or alternative radioligand), competing peptides or supplemented binding buffer (25 μL), and finally, membrane suspensions (200 μL). Samples were incubated in a 30° C. water bath with constant shaking for 120 min. Incubations were terminated by filtration over Whatman GF/C filters (pre-coated with 1% polyethyleneimine and air-dried before use), followed by washing with 5 mL of ice-cold binding buffer. Filter-trapped membranes were impregnated with MeltiLex solid scintillant (Wallac, Turku, Finland) and counted for ^125I in a Wallac Beta-Plate Reader. Alternatively, incubations were carried out in GF/C filter plates (pre-coated with 1% polyethyleneimine and air-dried before use), followed by vacuum filtration and three washes of 300 μL of ice-cold binding buffer. 50 μL of UltimaGold (Packard) scintillant were added and counted for ^125I, in a Wallac MicroBeta Trilux. Non-specific binding was defined by 300 nM human NPY for all receptors except the Y4 subtypes; 100 nM human PP was used for the human Y4 and 100 nM rat PP for the rat Y4.

[3] = target: T3, human Y4 receptor (Homo sapiens, UniProt P50391); assay: Radioligand binding to membranes, cloned human Y4 receptor; conditions: text b745; read-out: Ki (nM) NPY (Y4)
T3 construct: expressed in transfected cells; host or cells: mouse fibroblast LM(tk-) cells, e.g. L-hY4-3 (ATCC CRL-11779)
T3 sequence (P50391 whole entry): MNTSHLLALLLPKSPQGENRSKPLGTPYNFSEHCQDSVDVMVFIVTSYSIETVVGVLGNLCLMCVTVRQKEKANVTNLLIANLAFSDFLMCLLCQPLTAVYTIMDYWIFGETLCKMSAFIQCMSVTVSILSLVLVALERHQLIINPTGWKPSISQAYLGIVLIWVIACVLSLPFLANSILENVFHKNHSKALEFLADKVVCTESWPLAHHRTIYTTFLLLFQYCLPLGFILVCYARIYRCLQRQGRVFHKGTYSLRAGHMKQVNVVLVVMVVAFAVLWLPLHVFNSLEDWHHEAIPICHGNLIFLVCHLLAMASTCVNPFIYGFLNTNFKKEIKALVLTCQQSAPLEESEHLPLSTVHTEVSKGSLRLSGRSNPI
Protocol: as §1, §2, §3, §4

[4] = target: T1, human Y5 receptor; assay: Radioligand binding to membranes, cloned human Y5 receptor
Protocol: as §1, §2, §3, §4

[5] = target: T4, human Y2 receptor (Homo sapiens, UniProt P49146); assay: Radioligand binding to membranes, cloned human Y2 receptor
T4 sequence (P49146 1-381): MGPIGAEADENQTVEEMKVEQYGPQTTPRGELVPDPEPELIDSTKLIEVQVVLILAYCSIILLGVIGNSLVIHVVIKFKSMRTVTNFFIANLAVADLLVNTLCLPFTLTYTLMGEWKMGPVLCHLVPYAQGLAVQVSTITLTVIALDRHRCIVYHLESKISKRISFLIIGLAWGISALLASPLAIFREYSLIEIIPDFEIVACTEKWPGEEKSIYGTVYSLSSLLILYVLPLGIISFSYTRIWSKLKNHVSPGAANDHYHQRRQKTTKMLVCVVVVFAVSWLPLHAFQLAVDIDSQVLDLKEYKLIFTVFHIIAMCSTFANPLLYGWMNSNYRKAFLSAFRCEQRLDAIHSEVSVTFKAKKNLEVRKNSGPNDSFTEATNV
Protocol: as §1, §2, §3, §4

[6] = Table 6, read-out: Ki, nM hNPY-5

Structure (SMILES) | Kb [1] [nM] | Ki [4, 6] [nM] | also measured
CCNc1nc(NCC)nc(NCC2CCC(CNS(=O)(=O)c3cccs3)CC2)n1 (stereo not drawn) [Example 37, N2-[4-([4,6-di(ethylamino)-1,3,5-triazin-2-yl]aminomethyl)cyclohexyl]methyl-2-thiophenesulfonamide] | 158 |  | Ki ([4]; Table 2, read-out: Ki (nM) hNPY-5): 55 nM
O=S(=O)(NC[C@H]1CC[C@H](Nc2nc3c(s2)CCSc2ccccc2-3)CC1)c1cccc2cccnc12 [Example 157, N8-{[4-(4,5-Dihydrobenzo[2,3]thiepino[4,5-d][1,3]thiazol-2-ylamino)cyclohexyl]methyl}-8-quinolinesulfonamide] | 20 | 5.7 | 
CS(=O)(=O)NC[C@H]1CC[C@H](Nc2nc3c(s2)CCSc2ccccc2-3)CC1 [Example 104, N-{[4-(4,5-Dihydrobenzo[2,3]thiepino[4,5-d][1,3]thiazol-2-ylamino)cyclohexyl]methyl}-methanesulfonamide] | 2.51 | 6.8 | 
Cc1nc(-c2csc(N[C@H]3CC[C@H](CNS(=O)(=O)N(C)C)CC3)n2)c(C)s1 [Example 98, trans-N′-[(4-[4-(2,5-dimethyl-1,3-thiazol-4-yl)-1,3-thiazol-2-yl]aminocyclohexyl)methyl]-N,N-dimethylsulfamide] | 3.98 |  | Ki ([4]; Table 5, read-out: Ki, nM hNPY-5): 1.5 nM

Now from value to compound, other results behind:

Kb [1] [nM] | Ki [4, 6] [nM] | Structure (SMILES) | also measured
1000 |  | CC(C)Nc1nc(Cl)nc(NCC2CCC(CNS(=O)(=O)c3cccc4ccccc34)CC2)n1 (stereo not drawn) [Example 49, N1-{[4-({[4-chloro-6-(isopropylamino)-1,3,5-triazin-2-yl]amino}methyl)cyclohexyl]methyl}-1-naphthalenesulfonamide] | Ki [2]: > 100000 nM; Ki [3]: > 100000 nM; Ki ([4]; Table 3, read-out: Ki (nM) hNPY-5): 138 nM; Ki [5]: > 100000 nM
200 |  | CNc1nc(NCC2CCC(CNS(=O)(=O)c3cccc4ccccc34)CC2)nc(NC(C)C)n1 (stereo not drawn) [Example 1, N1-{[4-({[4-(Isopropylamino)-6-(methylamino)-1,3,5-triazin-2-yl]amino}methyl)cyclohexyl]methyl}-1-naphthalenesulfonamide] | Ki ([4]; Table 1, read-out: Ki (nM) hNPY-5): 13 nM
